Laboratory results as given in patent US20110039879A1, “METHODS FOR INCREASING WHITE BLOOD CELLS” (FibroGen ,Inc., priority 2007, published 2011).

Tests used:
Type in all cases: in vivo, Swiss-Webster mice
[1] = test system: total white blood cell (WBC); assay: Total white blood cells by complete blood count on day 8, dosing day 1, 3, 5; conditions: Mus musculus, 192 h, mice, oral gavage, measured on day 8, read-out: Total WBC % Increase Over Control; for change in vivo at 60 mg/kg: 60 mg/kg on day 1, day 3 and day 5; for change in vivo at 200 mg/kg: 200 mg/kg on day 1, day 3 and day 5; for change in vivo at 100 mg/kg: 100 mg/kg on day 1, day 3 and day 5
Description: (§1) To examine the effect of compounds and methods of the present invention on increasing white blood cells, the following studies were performed. In one series of experiments, male Swiss-Webster mice were administered various compounds of the present invention via oral gavage using a ball-tipped gavage needle. […] Animals were dosed once daily for 3 or 4 days. Six hours after the final dosing, 200 μl blood samples were collected and total white blood cell, neutrophil, and lymphocyte levels were measured by complete blood count (CBC) using a CellDyn cell analyzer (Abbott Laboratories).
(§2) In another series of experiments, male Swiss-Webster mice were administered various compounds (see Table 7 and Table 8) of the present invention via oral gavage using a ball-tipped gavage needle. […] Total WBC, neutrophil, lymphocyte, and monocyte levels were measured in mice as described above on day 8 following administration of compound on day 1, day 3, and day 5.

neutrophils [2] = assay: Neutrophils by complete blood count on day 8, dosing day 1, 3, 5; conditions: Mus musculus, Neutrophil, 192 h, mice, oral gavage, measured on day 8, read-out: Neutrophils % Increase Over Control; for change in vivo at 60 mg/kg: 60 mg/kg on day 1, day 3 and day 5; for change in vivo at 200 mg/kg: 200 mg/kg on day 1, day 3 and day 5; for change in vivo at 100 mg/kg: 100 mg/kg on day 1, day 3 and day 5
Description: as §1, §2

lymphocytes = assay: Lymphocytes by complete blood count on day 8, dosing day 1, 3, 5; conditions: mice, oral gavage, measured on day 8; for change in vivo at 60 mg/kg / change in vivo at 200 mg/kg / change in vivo at 100 mg/kg: Mus musculus, Lymphocyte, 192 h, read-out: Lymphocytes % Increase Over Control
Description: as §1, §2

monocytes = assay: Monocytes by complete blood count on day 8, dosing day 1, 3, 5; conditions: mice, oral gavage, measured on day 8
[3] = test system: total white blood cell (WBC); assay: Total white blood cells by complete blood count on day 8, dosing day 1, 3, 5; conditions: mice, oral gavage, measured on day 8
neutrophils [4] = assay: Neutrophils by complete blood count on day 8, dosing day 1, 3, 5; conditions: mice, oral gavage, measured on day 8
[5] = 60 mg/kg on day 1, day 3 and day 5
[6] = 200 mg/kg on day 1, day 3 and day 5
[7] = Mus musculus, Monocyte, 192 h, 200 mg/kg on day 1, day 3 and day 5, read-out: Monocytes % Increase Over Control
[8] = 100 mg/kg on day 1, day 3 and day 5
[9] = Mus musculus, Monocyte, 192 h, 100 mg/kg on day 1, day 3 and day 5, read-out: Monocytes % Increase Over Control

SMILES	change in vivo at 200 mg/kg [1] [%]	change in vivo at 200 mg/kg (neutrophils [2]) [%]	change in vivo at 200 mg/kg (lymphocytes; [6]) [%]	Lymphocytes (lymphocytes; [6])	change in vivo at 200 mg/kg (monocytes; [7]) [%]	Monocytes (monocytes; [6])	Total WBC [3, 6]	Neutrophils (neutrophils [4]; [6])	change in vivo at 100 mg/kg [1] [%]	change in vivo at 100 mg/kg (neutrophils [2]) [%]	change in vivo at 100 mg/kg (lymphocytes; [8]) [%]	Lymphocytes (lymphocytes; [8])	Monocytes (monocytes; [8])	Total WBC [3, 8]	Neutrophils (neutrophils [4]; [8])	further results
N#Cc1nc(C(=O)NCC(=O)O)c(O)c2ccc(Oc3ccccc3)cc12 [Compound Z, [(1-Cyano-4-hydroxy-7-phenoxy-isoquinoline-3-carbonyl)-amino]-acetic acid]																change in vivo at 60 mg/kg [1]: 6%; change in vivo at 60 mg/kg (neutrophils [2]): 80%; change in vivo at 60 mg/kg (lymphocytes; [5]): 0%; Lymphocytes (lymphocytes; [5]): 7.1 10^3 cells/μl; change in vivo at 60 mg/kg (monocytes; Mus musculus, Monocyte, 192 h, 60 mg/kg on day 1, day 3 and day 5, read-out: Monocytes % Increase Over Control): 200%; Monocytes (monocytes; [5]): 0.1 10^3 cells/μl; Total WBC [3, 5]: 8.3 10^3 cells/μl; Neutrophils (neutrophils [4]; [5]): 1.1 10^3 cells/μl
COc1ccc(Oc2cccc3c(C#N)nc(C(=O)NCC(=O)O)c(O)c23)cc1 [Compound N, {[1-Cyano-4-hydroxy-5-(4-methoxy-phenoxy)-isoquinoline-3-carbonyl]-amino}-acetic acid]	125	60	138	10.7 10^3 cells/μl	157	0.2 10^3 cells/μl	12.0 10^3 cells/μl	0.9 10^3 cells/μl								
N#Cc1nc(C(=O)NCC(=O)O)c(O)c2c(Cl)cn(Cc3ccccc3)c12 [Compound F, [(1-Benzyl-3-chloro-7-cyano-4-hydroxy-1H-pyrrolo[2,3-c]pyridine-5-carbonyl)-amino]-acetic acid]									81	23	86	11.6 10^3 cells/μl	0.1 10^3 cells/μl	12.6 10^3 cells/μl	0.7 10^3 cells/μl	
O=C(O)CNC(=O)c1c(O)c2cccn2n(Cc2ccc(C(F)(F)F)cc2)c1=O [Compound BG, {[4-Hydroxy-2-oxo-1-(4-trifluoromethyl-benzyl)-1,2-dihydro-pyrrolo[1,2-b]pyridazine-3-carbonyl]-amino}-acetic acid]	252	22	296	24.4 10^3 cells/μl	60	0.2 10^3 cells/μl	26.2 10^3 cells/μl	1.0 10^3 cells/μl								
O=C(O)CNC(=O)c1ncc2cc(Br)ccc2c1O [Compound T, [(7-Bromo-4-hydroxy-isoquinoline-3-carbonyl)-amino]-acetic acid]																change in vivo at 60 mg/kg [1]: 17%; change in vivo at 60 mg/kg (neutrophils [2]): 40%; change in vivo at 60 mg/kg (lymphocytes; [5]): 13%; Lymphocytes (lymphocytes; [5]): 6.2 10^3 cells/μl; Monocytes (monocytes; [5]): 0.0 10^3 cells/μl; Total WBC [3, 5]: 7.3 10^3 cells/μl; Neutrophils (neutrophils [4]; [5]): 1.0 10^3 cells/μl
N#Cc1nc(C(=O)NCC(=O)O)c(O)c2c(Cl)c(Cl)n(Cc3ccccc3)c12 [Compound Q, [(1-Benzyl-2,3-dichloro-7-cyano-4-hydroxy-1H-pyrrolo[2,3-c]pyridine-5-carbonyl)-amino]-acetic acid]	475	233	522	36.0 10^3 cells/μl	14	0.1 10^3 cells/μl	38.7 10^3 cells/μl	2.5 10^3 cells/μl								
N#Cc1nc(C(=O)NCC(=O)O)c(O)c2ccn(Cc3ccc4ccccc4c3)c12 [Compound R, [(7-Cyano-4-hydroxy-1-naphthalen-2-ylmethyl-1H-pyrrolo[2,3-c]pyridine-5-carbonyl)-amino]-acetic acid]									290	71	330	21.4 10^3 cells/μl	0.3 10^3 cells/μl	23.0 10^3 cells/μl	1.3 10^3 cells/μl	change in vivo at 100 mg/kg (monocytes; [9]): 205%
Cc1nc(C(=O)NCC(=O)O)c(O)c2ccc(Cl)cc12 [Compound Y, [(7-Chloro-4-hydroxy-1-methyl-isoquinoline-3-carbonyl)-amino]-acetic acid]	34	200	17	7.6 10^3 cells/μl	700	0.2 10^3 cells/μl	9.8 10^3 cells/μl	1.9 10^3 cells/μl								
N#Cc1nc(C(=O)NCC(=O)O)c(O)c2c(Cl)cn(Cc3ccccc3C(F)(F)F)c12 [Compound AT, {[3-Chloro-7-cyano-4-hydroxy-1-(2-trifluoromethyl-benzyl)-1H-pyrrolo[2,3-c]pyridine-5-carbonyl]-amino}-acetic acid]									81	27	94	8.5 10^3 cells/μl	0.2 10^3 cells/μl	9.4 10^3 cells/μl	0.8 10^3 cells/μl	change in vivo at 100 mg/kg (monocytes; [9]): 94%
Cc1cccc(C)c1Oc1ccc2c(C#N)nc(C(=O)NCC(=O)O)c(O)c2c1 [Compound E, {[1-Cyano-6-(2,6-dimethyl-phenoxy)-4-hydroxy-isoquinoline-3-carbonyl]-amino}-acetic acid]	221	54	245	15.8 10^3 cells/μl	100	0.1 10^3 cells/μl	16.6 10^3 cells/μl	0.8 10^3 cells/μl								
N#Cc1nc(C(=O)NCC(=O)O)c(O)c2c(Oc3ccc(Cl)cc3)cccc12 [Compound K, {[5-(4-Chloro-phenoxy)-1-cyano-4-hydroxy-isoquinoline-3-carbonyl]-amino}-acetic acid]	491	34	562	31.8 10^3 cells/μl	233	0.4 10^3 cells/μl	33.0 10^3 cells/μl	0.8 10^3 cells/μl								
N#Cc1nc(C(=O)NCC(=O)O)c(O)c2c(Cl)cn(Cc3ccc(F)cc3)c12 [Compound P, {[3-Chloro-7-cyano-1-(4-fluoro-benzyl)-4-hydroxy-1H-pyrrolo[2,3-c]pyridine-5-carbonyl]-amino}-acetic acid]									54	18	60	9.1 10^3 cells/μl	0.1 10^3 cells/μl	10.2 10^3 cells/μl	0.8 10^3 cells/μl	change in vivo at 100 mg/kg (monocytes; [9]): 33%
N#Cc1nc(C(=O)NCC(=O)O)c(O)c2c(Cl)cn(Cc3ccc(-c4ccccc4)cc3)c12 [Compound AW, [(1-Biphenyl-4-ylmethyl-3-chloro-7-cyano-4-hydroxy-1H-pyrrolo[2,3-c]pyridine-5-carbonyl)-amino]-acetic acid]	616	604	635	34.1 10^3 cells/μl	100	0.2 10^3 cells/μl	39.1 10^3 cells/μl	4.7 10^3 cells/μl								
C[C@H](c1ccccc1)n1c(Cl)c(Cl)c2c(O)c(C(=O)NCC(=O)O)nc(C#N)c21 [Compound L, {[(R)-2,3-Dichloro-7-cyano-4-hydroxy-1-(1-phenyl-ethyl)-1H-pyrrolo[2,3-c]pyridine-5-carbonyl]-amino}-acetic acid]									281	469	262	18.0 10^3 cells/μl	0.0 10^3 cells/μl	22.8 10^3 cells/μl	4.8 10^3 cells/μl	
